Where a name gives a salt, the structure may show the parent alone.

IC50 data for 20 compounds are collected here from patent publication US8952177B2 (Janssen Pharmaceutica NV, priority 2013, dated 2015).

The test system of the first assay is leukotriene pathway in human whole blood (LTB4). Briefly: Human whole blood assay (LTB4 after calcium ionophore A23187 stimulation). The conditions noted are these: Homo sapiens, human whole blood diluted 1:1 in RPMI, 15 min pre-incubation, A23187 7 μg/mL for 30 min at 37° Celsius. Type of assay: cell-based. On the procedure: The ability of the compounds of the present invention to treat a FLAP-mediated disease and/or disorder, or associated symptoms or complications thereof, was determined using the following procedures. Binding assay data represent the average value obtained from two different assay plates, with samples run in duplicate on each plate. Human whole blood assay data represent a single replicate on an assay plate using whole blood from at least one healthy donor.
An in vitro cellular assay was performed using human whole blood collected in heparin-containing tubes, which was used to test the ability of compounds to modulate the leukotriene pathway in human whole blood. The blood was diluted 1:1 in RPMI medium, pre-incubated for 15 min at 37° Celsius with test compounds at various concentrations, and then stimulated with calcium ionophore, A23187 (7 μg/mL), for 30 min at 37° Celsius. The samples were then centrifuged and plasma was removed. The plasma was diluted in assay buffer and LTB4 levels were measured using a commercial kit (Enzo Life Sciences). The concentration of each compound that was required for half-maximal inhibition (modulation) of […] (IC50) was calculated by a 4-parameter equation using the program GraphPad Prism (GraphPad software). For analysis, data are imported into 3DX and aggregated as the average of duplicates of the calculated ratios in order to calculate Ki and IC50 values. Numbers in parentheses are the number of runs for the assay.
In the case of `Cc1ccc(COc2ccc3nc([C@H]4CCCC[C@H]4C(=O)O)n(Cc4ccc(Br)cc4)c3c2)nc1` (single isomer, unassigned) [Example 3], the half-maximal inhibitory concentration (IC50) is greater than 30000 nM. In the case of `Cc1ccc(COc2cc(Cl)c3nc([C@@H]4[C@H](C(=O)O)C4(C)C)n(Cc4ccc(Br)cc4)c3c2)nc1` (racemic) [Example 76, racemic cis-3-{1-(4-Bromobenzyl)-4-chloro-6-[(5-methylpyridin-2-yl)methoxy]-1H-benzimidazol-2-yl}-2,2-dimethylcyclopropanecarboxylic acid], the IC50 was determined as 5710 nM. With `Cn1cc(Cl)c(COc2ccc3nc([C@@H]4CCCC[C@@H]4C(=O)O)n(Cc4ccc(Br)cc4)c3c2)n1` (racemic) [Example 81, racemic cis-2-{1-(4-Bromobenzyl)-6-[(4-chloro-1-methyl-1H-pyrazol-3-yl)methoxy]-1H-benzimidazol-2-yl}cyclohexanecarboxylic acid], the half-maximal inhibitory concentration (IC50) came out at 200 nM. Same read-out and setting: in the case of `Cc1ccc(COc2ccc3nc([C@H]4CCCC[C@H]4C(=O)O)n(Cc4ccc(OC(F)(F)F)c(F)c4)c3c2)nc1` (racemic) [Example 20, racemic cis-2-{1-[3-Fluoro-4-(trifluoromethoxy)benzyl]-6-[(5-methylpyridin-2-yl)methoxy]-1H-benzimidazol-2-yl}cyclohexanecarboxylic acid] it was 750 nM; in that of `Cc1cnc(COc2ccc3nc([C@@H]4CCCC[C@@H]4C(=O)O)n(Cc4ccc(N5CCC(F)CC5)cc4F)c3c2)c(F)c1` (stereo in doubt) [Example 175, (1S*,2R*)-2-{1-[2-Fluoro-4-(4-fluoropiperidin-1-yl)benzyl]-6-[(3-fluoro-5-methylpyridin-2-yl)methoxy]-1H-benzimidazol-2-yl}cyclohexanecarboxylic acid], 4860 nM.

As to `Cc1ccc(COc2ccc3nc([C@@H]4CCCC[C@@H]4C(=O)O)n(Cc4ccc(N5CC(F)(F)C5)cc4)c3c2)nc1` (relative stereo) [Example 160, (1S*,2R*)-2-{1-[4-(3,3-Difluoroazetidin-1-yl)benzyl]-6-[(5-methylpyridin-2-yl)methoxy]-1H-benzimidazol-2-yl}cyclohexanecarboxylic acid], the IC50 stood at 310 nM. As for `Cc1cnc(COc2ccc3nc([C@H]4CCCC[C@H]4C(=O)O)n(Cc4ccc(N5CCC(F)CC5)cc4F)c3c2)c(F)c1` (stereo in doubt) [Example 174, (1R*,2S*)-2-{1-[2-Fluoro-4-(4-fluoropiperidin-1-yl)benzyl]-6-[(3-fluoro-5-methylpyridin-2-yl)methoxy]-1H-benzimidazol-2-yl}cyclohexanecarboxylic acid], the IC50 came to 120 nM.

Regarding `CCC(CC)(Cc1nc2c(F)cc(OCc3ccc(C)cn3)cc2n1Cc1ccc(OC(F)(F)F)cc1)C(=O)O` [Example 69, 2-Ethyl-2-({4-fluoro-6-[(5-methylpyridin-2-yl)methoxy]-1-[4-1-trifluoromethoxy)benzyl]-1H-benzimidazol-2-yl}methyl)butanoic acid as the TFA salt], the concentration for half-maximal inhibition (IC50) was 1030 nM.

Take `Cc1cnc(COc2ccc3nc([C@@H]4CCCC[C@@H]4C(=O)O)n(Cc4c(F)cc(Br)cc4F)c3c2)c(F)c1` (racemic) [Example 123, racemic cis-2-{1-(4-Bromo-2,6-difluorobenzyl)-6-[(3-fluoro-5-methylpyridin-2-yl)methoxy]-1H-benzimidazol-2-yl}cyclohexanecarboxylic acid]: the 50% inhibitory concentration (IC50) was 110 nM. As for `Cc1ccc(Cn2c(C3CCCC[C@H]3C(=O)O)nc3c(F)cc(OCc4ccc(C)cn4)cc32)cc1` (mixture of isomers) [Example 68, racemic cis-2-{4-Fluoro-1-(4-methylbenzyl)-6-[(5-methylpyridin-2-yl)methoxy]-1H-benzimidazol-2-yl}cyclohexanecarboxylic acid as the TFA salt], the IC50 is 430 nM.

Take `Cc1ccc(COc2ccc3nc([C@H]4CCCC[C@H]4C(=O)O)n(Cc4ccc(N5CCC(F)(F)C5)cc4F)c3c2)nc1` (stereo in doubt) [Example 163, (1R*,2S*)-2-{1-[4-(3,3-Difluoropyrrolidin-1-yl)-2-fluorobenzyl]-6-[5-methylpyridin-2-yl)methoxy]-1H-benzimidazol-2-yl}cyclohexanecarboxylic acid]: the IC50 amounted to 51 nM. As to `Cc1ccc(COc2ccc3nc(CC4(C(=O)O)CCCC4)n(Cc4ccc(Br)cc4)c3c2)nc1` [Example 9, 1-({1-(4-Bromobenzyl)-6-[(5-methylpyridin-2-yl)methoxy]-1H-benzimidazol-2-yl}methyl)cyclopentanecarboxylic acid as the TFA salt], the concentration for half-maximal inhibition (IC50) was roughly 14000 nM. Regarding `Cc1ccc(COc2ccc3nc([C@@H]4CCCC[C@@H]4C(=O)O)n(Cc4ccc(OC(F)(F)F)cc4Br)c3c2)nc1` (racemic) [Example 102, racemic cis-2-{1-[2-Bromo-4-(trifluoromethoxy)benzyl]-6-[(5-methylpyridin-2-yl)methoxy]-1H-benzimidazol-2-yl}cyclohexanecarboxylic acid as the HCl salt], the concentration for half-maximal inhibition (IC50) is 1030 nM. Regarding `Cn1ccc(COc2ccc3nc([C@@H]4CCCC[C@@H]4C(=O)O)n(Cc4ccc(N5CCCCC5)cc4)c3c2)n1` (racemic) [Example 88, racemic cis-2-{6-[(1-Methyl-1H-pyrazol-3-yl)methoxy]-1-(4-piperidin-1-ylbenzyl)-1H-benzimidazol-2-yl}cyclohexanecarboxylic acid], the IC50 was 820 nM. Regarding `Cc1ccc(COc2ccc3nc(C4CCCC[C@H]4C(=O)O)n(Cc4ccc(N5CCC(F)(F)C5)cc4F)c3c2)nc1` (mixture of isomers) [Example 162], the IC50 came to 310 nM. Consider `Cc1ccc(COc2ccc3nc([C@H]4CCCC[C@H]4C(=O)O)n(Cc4ccc(OC(F)(F)F)cc4)c3c2)nc1` (stereo in doubt) [Example 28, (1R*,2S*)-2-{6-[(5-Methylpyridin-2-yl)methoxy]-1-[4-(trifluoromethoxy)benzyl]-1H-benzimidazol-2-yl}cyclohexanecarboxylic acid], for which the IC50 worked out at 190 nM. For `CCC(CC)(Cc1nc2ccc(OCc3ccc(C)cn3)cc2n1Cc1ccc(OC(F)(F)F)c(F)c1)C(=O)O` [Example 30, 2-Ethyl-2-({1-[3-fluoro-4-(trifluoromethoxy)benzyl]-6-[(5-methylpyridin-2-yl)methoxy]-1H-benzimidazol-2-yl}methyl)butanoic acid], the half-maximal inhibitory concentration (IC50) is 2660 nM. On to `Cc1ccc(COc2ccc3nc([C@@H]4[C@H](C(=O)O)C4(C)C)n(Cc4ccc(Br)cc4)c3c2)nc1` (relative stereo) [Example 112, (1S*,3R*)-3-{1-(4-Bromobenzyl)-6-[(5-methylpyridin-2-yl)methoxy]-1H-benzimidazol-2-yl}-2,2-dimethylcyclopropanecarboxylic acid], for which the IC50 was found to be 500 nM. Still for that read-out and setting: the same measure for `Cc1ccc(COc2ccc3nc([C@@H]4CCCC[C@@H]4C(=O)O)n(Cc4ccc(N5CC(F)(F)C5)cc4F)c3c2)nc1` (stereo in doubt) [Example 167, (1S*,2R*)-2-{1-[4-(3,3-Difluoroazetidin-1-yl)-2-fluorobenzyl]-6-[(5-methylpyridin-2-yl)methoxy]-1H-benzimidazol-2-yl}cyclohexanecarboxylic acid]: 71 nM.

Staying with this assay, now noted: human whole blood diluted 1:1 in RPMI, 15 min pre-incubation, A23187 7 μg/mL for 30 min at 37° Celsius; TFA salt.
Turning to `Cn1ccc(COc2ccc3nc(C4CCCC[C@H]4C(=O)O)n(Cc4ccc(Br)cc4)c3c2)n1` (mixture of isomers) [Example 41, racemic trans-2-{1-(4-Bromobenzyl)-6-[(1-methyl-1H-pyrazol-3-yl)methoxy]-1H-benzimidazol-2-yl}cyclohexanecarboxylic acid as the TFA salt], the half-inhibitory concentration (IC50) was 6760 nM.
